In patent US20090221594A1, “STABLE PHARMACEUTICAL COMPOSITIONS OF 5, 10 METHYLENETRAHYDROFOLATE” (priority 2005, published 2009):

What was measured:
Type in all cases: physicochemical
[1] = pH time course following dissolution in water; settings: for pH following dissolution in water: room temperature, ambient air
Experimental: (§1) 10 ml sterile water was added to the reference formulation lyophile of 5,10-MTHF and to each of the test formulation lyophiles to give a final concentration of 10 mg/ml (this dissolution volume and concentration corresponds to the most current recommended clinical use guidelines for 5,10-MTHF for cancer therapy). The nonformulated 5,10-MTHF was dissolved in water to a concentration of 6 mg/ml. The lower concentration of nonformulated 5,10-MTHF was due to the fact that nonformulated 5,10-MTHF has a maximum solubility in water of approximately 6 mg/ml (when dissolved in a trisodium citrate, 5,10-MTHF has a much higher (>10 mg/ml) solubility). Samples were stored at room temperature under ambient air conditions to mimic as close as possible expected real-world use.
The pH of 5,10-MTHF dissolved in water was measured at multiple time points using a digital pH meter.

[2] = Solubility of 5,10-MTHF in water
Experimental: as §1

[3] = 5,10-MTHF stability following dissolution in water by HPLC; settings: for % Normalized Purity of 5,10-MTHF: room temperature
Experimental: as §1
The stability of 5,10-MTHF dissolved in water was measured by HPLC. Data is reported as the normalized purity of 5,10-MTHF based on the starting purity according to the following formula: % Normalized Purity=(% 5,10-MTHF Time X)÷(% 5,10-MTHF Time 0)×(100)
5,10-MTHF stability kinetics were estimated by linear regression analysis (GraphPad Prism software).

pH following dissolution in water ([1]; 0 hours): 6.88
pH following dissolution in water ([1]; 0.25 hours): 6.89
pH following dissolution in water ([1]; 0.5 hours): 6.87
pH following dissolution in water ([1]; 0.75 hours): 6.85
pH following dissolution in water ([1]; 1 hour): 6.83
pH following dissolution in water ([1]; 2 hours): 6.77
pH following dissolution in water ([1]; 4 hours): 6.80
pH following dissolution in water ([1]; 6 hours): 6.83
pH following dissolution in water ([1]; 8 hours): 6.81
pH following dissolution in water ([1]; 24 hours): 6.79
pH following dissolution in water (approximate, text summary) ([1]; starting and steady state pH over 24 hours): ~6.9
solubility when dissolved in trisodium citrate ([2]; dissolved in a trisodium citrate): > 10000 µg/mL
maximum solubility in water ([2]; nonformulated, water): approximately 6 mg/ml
% Normalized Purity of 5,10-MTHF ([3]; 0 hours after dissolution in water): 100.0%
% Normalized Purity of 5,10-MTHF ([3]; 0.5 hours after dissolution in water): 94.9%
% Normalized Purity of 5,10-MTHF ([3]; 1 hour after dissolution in water): 92.4%
% Normalized Purity of 5,10-MTHF ([3]; 2 hours after dissolution in water): 90.3%
% Normalized Purity of 5,10-MTHF ([3]; 4 hours after dissolution in water): 85.9%
% Normalized Purity of 5,10-MTHF ([3]; 8 hours after dissolution in water): 77.8%
% Normalized Purity of 5,10-MTHF ([3]; 12 hours after dissolution in water): 69.6%
% Normalized Purity of 5,10-MTHF ([3]; 18 hours after dissolution in water): 55.1%
% Normalized Purity of 5,10-MTHF ([3]; 24 hours after dissolution in water): 44.9%
Linear Regression Degradation Rate Following Dissolution in Water ([3]; slope of best-fit line, 0-24 hours): −2.2 % Purity/Hours
Structure (SMILES): Nc1nc2c(c(=O)[nH]1)N1CN(c3ccc(C(=O)N[C@@H](CCC(=O)O)C(=O)O)cc3)CC1CN2 (some centres unmarked) [Nonformulated, 5,10-methylenetetrahydrofolate]
